Two molecules from patent publication US20080261866A1, “Compositions Comprising Glycosaminoglycan and Nonsteroidal Anti-Inflammatory Drug” (PANACEA BIOTEC LTD., priority 2005, published 2008) can be followed below.

The subject of series [1] is diclofenac-induced gastric ulcers. The series can be described thus: Diclofenac-induced acute gastric ulcers in rats. Particulars: Single oral administration of diclofenac free acid 100 mg/kg, fasted animals.
Experimental: Wistar rats of either sex were fasted overnight and weighing 170-200 g at the time of testing were used throughout. […] A dosing volume of 10 ml/kg was used for each sequential solution or suspension. All doses were coded and the test was performed under a code not known to the observer.
The ulcers were induced as described by Chan et al. (1995). In brief, overnight fasted animals were weighed and randomly divided into four groups. […] The number of ulcers was identified using 10× magnifying lens, counted, multiplied by respective score, and summed up for each animal. The mean score as ulcer index in each group was calculated as mentioned below.
Series [2] concerns Indomethacin-induced gastric ulcers. The series is described as follows: Indomethacin-induced acute gastric ulcers in rats. It is filed as in vivo, Wistar rats. The conditions noted are these: Single oral administration of indomethacin 20 mg/kg, fasted animals. On the procedure: The observed unexpected gastroprotective effect of Chondroitin sulphate is evidenced by test conducted in rats. Wistar rats of either sex were procured from Central Animal House facility, Panacea Biotec Ltd., India. The animals were fasted overnight and those weighing between 150-170 gms at the time of testing were used throughout. […] In brief, overnight fasted animals were administered orally with 20 mg/kg of Indomethacin on the day of experimentation. […] [table]

`O=C(O)Cc1ccccc1Nc1c(Cl)cccc1Cl` [Diclofenac, Diclofenac free acid]: in series [1], the “Gastric damage (in words)” value is given as “severe gastric damage”.

Turning to `COc1ccc2c(c1)c(CC(=O)O)c(C)n2C(=O)c1ccc(Cl)cc1` [Indomethacin], in series [2], the “Gastric damage (in words)” value is “severe gastric damage”.
